Experimental data taken from PMC3361763 (2011).

Assays:
[1] = target: CDK6 (Homo sapiens, UniProt Q00534); assay: radiometric kinase assay; assay type: biochemical
[2] = target: CDK4 (Homo sapiens, UniProt P11802); assay: radiometric kinase assay; assay type: biochemical
Sequence of CDK4 (P11802 2-303): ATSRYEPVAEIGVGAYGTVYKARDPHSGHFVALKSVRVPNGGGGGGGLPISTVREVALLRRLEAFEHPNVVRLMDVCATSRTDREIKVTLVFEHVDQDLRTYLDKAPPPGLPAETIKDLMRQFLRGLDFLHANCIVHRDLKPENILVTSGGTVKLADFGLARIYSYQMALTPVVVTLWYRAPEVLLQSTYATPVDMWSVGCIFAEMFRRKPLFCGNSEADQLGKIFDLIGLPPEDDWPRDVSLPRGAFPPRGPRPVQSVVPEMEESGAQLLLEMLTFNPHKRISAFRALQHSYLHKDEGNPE

Sequence of CDK6 (Q00534 whole entry): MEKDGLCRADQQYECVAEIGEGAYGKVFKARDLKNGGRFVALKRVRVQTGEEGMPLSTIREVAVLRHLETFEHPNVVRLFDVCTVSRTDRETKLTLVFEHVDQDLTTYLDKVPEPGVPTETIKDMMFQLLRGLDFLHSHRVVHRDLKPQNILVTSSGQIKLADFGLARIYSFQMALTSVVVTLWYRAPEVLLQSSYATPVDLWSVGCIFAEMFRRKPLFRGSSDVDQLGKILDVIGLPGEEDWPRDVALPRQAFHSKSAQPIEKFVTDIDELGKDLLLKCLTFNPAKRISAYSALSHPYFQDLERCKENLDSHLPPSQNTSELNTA

With `O=C(O)CN(CC(=O)O)Cc1cc2c(cc1O)Oc1cc(O)c(CN(CC(=O)O)CC(=O)O)cc1C21OC(=O)c2ccccc21` [calcein, 4′5′-bis(N, N-bis(carboxymethyl)aminomethyl) fluorescein] the IC50 [1] was 75 µM and the “radiometric kinase assay (GST-Rb substrate) on CDK4 immunoprecipitated from HCT1” value [2] was ~ 75 μM.
